Results on nine compounds are retold here after patent US20250145608A1, “KRAS DEGRADING COMPOUNDS COMPRISING ANNULATED 2-AMINO-3-CYANO THIOPHENES” (Boehringer Ingelheim Int'l GmbH Corp., priority 2021, published 2025).

Assay type in all cases: cell-based
The subject of experiment [1] is GP5d cells. In words: GP5d cell proliferation assay (colorectal cancer, G12D), 5 days. Conditions: Homo sapiens, 120 h. An outline of the steps: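 Cells in DMEM + 10% FCS received logarithmic compound dilutions (DMSO-normalized) and were grown for 5 days. Viability read by CellTiter-Glo luminescence as percent of DMSO controls, with a T0 reading at compound addition; IC50 from a four-parameter logistic fit.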

Experiment [2] deals with T1, KRAS4B G12C (Homo sapiens, UniProt P01116, G12C).
T1 construct: HiBit; expressed in transfected cells; host or cells: GP5d cells (ECACC 95090715), stably transduced with lentivirus, CMV promoter
T1 sequence (P01116 1-188 isoform P01116-2 G12C): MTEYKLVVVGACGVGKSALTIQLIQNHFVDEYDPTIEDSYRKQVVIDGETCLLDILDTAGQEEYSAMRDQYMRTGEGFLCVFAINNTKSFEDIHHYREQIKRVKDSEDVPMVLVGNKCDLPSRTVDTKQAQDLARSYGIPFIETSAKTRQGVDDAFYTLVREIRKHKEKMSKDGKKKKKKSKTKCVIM
In words: HiBit KRAS4B mutant spectrum degradation assay, KRAS4B G12C in GP5d cells (18 h). Conditions: KRAS mutation G12C. An excerpt:
(§1) The therapeutically relevant mutant KRAS constructs (WT, G12C, G12D, G12V, G13D) were obtained by site directed mutagenesis using a KRAS4B WT cDNA construct as a template. GP5d cells (ECACC Cat. No. 95090715) were transduced with lentiviral vectors expressing mutant KRAS4B cDNA under control of a CMV promoter. Stably transduced cells were selected using a neomycin selectable marker encoded on the construct.
(§2) To assess PROTAC-mediated degradation of various KRAS mutants, GP5d cells stably transduced with KRAS4B constructs as described above were seeded at 25000 cells per well in 100 μL Dulbecco's Modified Eagle medium (Sigma cat. no. D6429) supplemented with 10% fetal calf serum into white bottom opaque 96 well plates (Perkin Elmer cat no. 5680). Plates were incubated at 37° C., 5% CO2 in a humidified incubator over night to allow the cells to adhere. […] Plates were further incubated at 37° C. for 18 hours. Following incubation, 100 μL per well Promega Nano-Glo HiBit lytic detection reagent mix (Promega Nano-Glo HiBit Lytic Detection System #N3050), prepared according to the manufacturer's instructions in the kit, were added. To allow for adequate cell lysis, plates were incubated on an orbital shaker for 15 min and further incubated 30 min at room temperature. Upon completion of cell lysis, luminescence was measured using an Envision plate reader using the Ultrasensitive Luminescence Protocol for 96 well plates. Luminescence levels were normalized by the values obtained with DMSO-treated samples and plotted as percent of DMSO control. DC50 values were computed using a four parametric logistic model and are reported in nM in Table 65 for representative example (Ex.) compounds of the invention. Dmax values represent the maximal extent of degradation observed and is stated as percent of control (% Ctrl.) treatments in Table 66 for representative example (Ex.) compounds of the invention.
A general note: HiBiT is a short tag that completes a luciferase, so light tracks the accessible tagged protein.

The target in experiment [3] is T2, KRAS4B G12D (Homo sapiens, UniProt P01116, G12D).
T2 construct: HiBit; expressed in transfected cells; host or cells: GP5d cells (ECACC 95090715), stably transduced with lentivirus, CMV promoter
T2 sequence (P01116 1-188 isoform P01116-2 G12D): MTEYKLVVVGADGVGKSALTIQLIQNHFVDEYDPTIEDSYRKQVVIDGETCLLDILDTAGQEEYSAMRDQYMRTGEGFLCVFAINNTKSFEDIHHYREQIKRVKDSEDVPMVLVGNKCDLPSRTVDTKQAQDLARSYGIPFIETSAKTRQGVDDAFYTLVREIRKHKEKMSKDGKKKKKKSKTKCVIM
In words: HiBit KRAS4B mutant spectrum degradation assay, KRAS4B G12D in GP5d cells (18 h). Conditions: KRAS mutation G12D.
From the text: as §1, §2

Experiment [4] has as its target T3, KRAS4B G12V (Homo sapiens, UniProt P01116, G12V).
T3 construct: HiBit; expressed in transfected cells; host or cells: GP5d cells (ECACC 95090715), stably transduced with lentivirus, CMV promoter
The experiment is described as follows: HiBit KRAS4B mutant spectrum degradation assay, KRAS4B G12V in GP5d cells (18 h). Conditions: KRAS mutation G12V.
From the text: as §1, §2

T3 sequence (P01116 1-188 isoform P01116-2 G12V): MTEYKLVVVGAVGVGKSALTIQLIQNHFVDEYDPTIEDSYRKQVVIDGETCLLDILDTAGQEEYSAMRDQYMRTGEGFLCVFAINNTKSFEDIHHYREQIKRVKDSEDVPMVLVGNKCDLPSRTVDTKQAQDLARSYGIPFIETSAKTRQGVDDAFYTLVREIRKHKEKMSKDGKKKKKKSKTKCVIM

As for `Cc1ncsc1-c1ccc(CNC(=O)[C@@H]2C[C@@H](O)CN2C(=O)C(c2cc(OCCCCN3CCCN(c4nccc(-c5cc([C@@]6(C)CCCc7sc(N)c(C#N)c76)on5)n4)[C@@H](C)C3)no2)C(C)C)cc1` (stereo partly shown) [I-4], in experiment [1], the IC50 came out at 36.1 nM.
In the case of `Cc1ncsc1-c1ccc([C@H](CO)NC(=O)[C@@H]2C[C@@H](O)CN2C(=O)[C@H](C(C)C)n2cc(OCCCC(C)N3CCCN(c4nccc(-c5noc([C@@]6(C)CCCc7sc(N)c(C#N)c76)n5)n4)[C@@H](C)C3)nn2)cc1` (stereo partly shown) [I-30], the figures for the DC50 in experiment [2], in experiment [3] and in experiment [4] were 1.2 nM, 0.8 nM and 2.2 nM, respectively. The “Dmax at 18 h” value is 95.6 % Ctrl in experiment [2], 96.1 % Ctrl in experiment [3] and 91.0 % Ctrl in experiment [4].
`Cc1ncsc1-c1ccc([C@H](CO)NC(=O)[C@@H]2C[C@@H](O)CN2C(=O)[C@H](C(C)C)n2cc(OC(C)CCCN3CCCN(c4nccc(-c5noc([C@@]6(C)CCCc7sc(N)c(C#N)c76)n5)n4)[C@@H](C)C3)nn2)cc1` (stereo partly shown) [I-31]: the DC50 in experiment [2] was 3.6 nM; in experiment [3], 3.3 nM; in experiment [4] it was 8.7 nM. The “Dmax at 18 h” value in experiment [2] is listed as 94.7 % Ctrl; in experiment [3] it was 95.8 % Ctrl; in experiment [4] it was 89.2 % Ctrl.
As for `Cc1ncsc1-c1ccc([C@H](CO)NC(=O)[C@@H]2C[C@@H](O)CN2C(=O)[C@H](C(C)C)n2cc(OCCCCN3CCCN(c4nccc(-c5noc([C@@]6(C)CCCc7sc(N)c(C#N)c76)n5)n4)[C@@H](C)C3)nn2)cc1` [I-29], the DC50 is 1.4 nM in experiment [2], 1.5 nM in experiment [3] and 3.5 nM in experiment [4]. For the same compound, the “Dmax at 18 h” value in experiment [2] was 95.6 % Ctrl; in experiment [3] it was 96.0 % Ctrl; in experiment [4], 90.5 % Ctrl.
Regarding `Cc1ncsc1-c1ccc(CNC(=O)[C@@H]2C[C@@H](O)CN2C(=O)[C@@H](c2cc(OCCCCN3CCCN(c4nccc(-c5noc([C@@]6(C)CCCc7sc(N)c(C#N)c76)n5)n4)[C@@H](C)C3)no2)C(C)C)cc1` (single isomer, unassigned) [I-27], the DC50 is 3.7 nM in experiment [2], 1.1 nM in experiment [3] and 2.7 nM in experiment [4]. Further, the “Dmax at 18 h” value in experiment [2] is reported as 83 % Ctrl; in experiment [3], 95 % Ctrl; in experiment [4], 86 % Ctrl. Besides, in experiment [1], half-maximal inhibition (IC50) was put at 4 nM.
With `Cc1ncsc1-c1ccc([C@@H](NC(=O)[C@@H]2C[C@@H](O)CN2C(=O)[C@H](C(C)C)n2cc(OCCCCN3CCCN(c4nccc(-c5noc([C@@]6(C)CCCc7sc(N)c(C#N)c76)n5)n4)[C@@H](C)C3)nn2)[C@H](C)O)cc1` (single isomer, unassigned) [I-41], the DC50 in experiment [2] stood at 1.2 nM; in experiment [3], 1.3 nM; in experiment [4], 2.5 nM. Also, the “Dmax at 18 h” value is 96.2 % Ctrl in experiment [2], 96.1 % Ctrl in experiment [3] and 90.8 % Ctrl in experiment [4].
For the compound `Cc1ncsc1-c1ccc([C@@H](NC(=O)[C@@H]2C[C@@H](O)CN2C(=O)[C@H](C(C)C)n2cc(OCCCN3CCCN(c4nccc(-c5noc([C@@]6(C)CCCc7sc(N)c(C#N)c76)n5)n4)[C@@H](C)C3)nn2)[C@H](O)C(C)C)cc1` (single isomer, unassigned) [I-43], the DC50 stood at 1.1 nM in experiment [2], 1.3 nM in experiment [3] and 2.6 nM in experiment [4]. Moreover, the figures for the “Dmax at 18 h” value in experiment [2], in experiment [3] and in experiment [4] were 95.6 % Ctrl, 95.8 % Ctrl and 89.4 % Ctrl, respectively.
As to `Cc1ncsc1-c1ccc(CNC(=O)[C@@H]2C[C@@H](O)CN2C(=O)[C@H](c2cc(OCCCN3CCCN(c4nccc(-c5noc([C@@]6(C)CCCc7sc(N)c(C#N)c76)n5)n4)[C@@H](C)C3)no2)C(C)C)cc1` (single isomer, unassigned) [I-24], inhibition in experiment [1] was half-maximal at 766 nM (IC50).
As to `Cc1ncsc1-c1ccc(CNC(=O)[C@@H]2C[C@@H](O)CN2C(=O)[C@@H](c2cc(OCCCN3CCCN(c4nccc(-c5noc([C@@]6(C)CCCc7sc(N)c(C#N)c76)n5)n4)[C@@H](C)C3)no2)C(C)C)cc1` (single isomer, unassigned) [I-25], the DC50 is 1.9 nM in experiment [2], 1.3 nM in experiment [3] and 3.8 nM in experiment [4]. The “Dmax at 18 h” value in experiment [2] is reported as 92.5 % Ctrl; in experiment [3] it was 96 % Ctrl; in experiment [4], 90.5 % Ctrl. The compound also came in with an IC50 in experiment [1] of 3.97 nM.

What is called IC50 is the concentration that inhibits the measured activity by half. Low readings indicate higher potency, high ones lower potency. Usually DC50 stands for the concentration at which degradation of the target reaches its halfway point. Low values mean degradation at low concentration, high ones degradation only at high concentration.
